From paper PMC12750388, “Coumarin-1,2,3-Triazole Conjugates as Molecular Scaffolds for the Selective Induction of ROS-Driven Apoptosis in Cancer Cells in the Development of Pyruvate Kinase M2 Inhibitors” (ACS Omega, 2025)

What was measured:
Assay type in all cases: cell-based, human
SCC-9 cells [1] = test: ROS-Glo H2O2 assay; conditions: SCC-9, 2 × IC50, 12 and 24 h
Procedure: The production of reactive oxygen species (ROS) was assessed by the detection of hydrogen peroxide (H2O2) using the ROS-Glo H2O2 assay kit (Promega Corporation, Madison, WI, USA; G8820). […] A plate with wells without cells was used as a control. Cells and cell-free wells remained in treatment at times of interest, and 2 h before completion of the times, well volumes were removed to reduce to 40 μL per well. Then the positive control of menadione (Sigma-Aldrich Co., St. Louis, MO, USA), a polycyclic aromatic ketone based on 1,4-naphthoquinone, was used to treat its respective well, and H2O2 substrate from the kit was added for all treatments, followed by the incubation of the plate for the remaining 2 h. Then the detection solution was added, and the plates remained at room temperature for 20 min, following the reading in the TD 20/20 luminometer (Turner Designs, Sunnyvale, CA, USA). The reading of bioluminescence detected is indicated as arbitrary units (a.u.). Additionally, the cell viability was assessed through pretreatment of cells with 10 mM N-acetyl-L-cysteine (NAC) (Sigma-Aldrich Co., St. Louis, MO, USA) for 2 h. […] At the end of the time, the MTT cell viability assay was performed.

[2] = test system: caspases 3 and 7 in SCC-9 cells; test: Caspase-Glo 3/7 assay; conditions: SCC-9, 2 × IC50, 12 and 24 h
Procedure: Analysis of activation of caspases 3 and 7 was assessed by using the Caspase-Glo 3/7 Assay Kit (Promega Corporation, Madison, WI, USA; G8090). The reagent provided by the kit causes cell lysis; therefore, parallelly, a cell viability assay using violet crystal was performed to normalize the detection of active caspases by viable cells. Caspases 3 and 7 procedures consisted of seeding 5 × 10^3 SCC-9 cells in a 96-well plate. […] A plate with wells without cells was used as a control. Cells and cell-free wells remained in treatment at times of interest. Then, caspase activity was detected according to the manufacturer’s instructions. Results were obtained using a TD 20/20 luminometer (Turner Designs, Sunnyvale, CA, USA). […] Then the medium was removed, and the wells were gently washed with PBS. PBS was removed, and cells were fixed with 100% alcohol that was removed after 10 min. Cells were stained with 0.05% violet crystal for 10 min. Wells were gently washed with deionized water, and […] methanol was added to each well, followed by agitation of the plate for 10 min. Absorbance of wells was read in an EPOCH (BioTek Instruments, Winooski, VT, USA) at an absorbance of 595 nm.

SCC-9 cells [3] = test: Videomicroscopy by time-lapse; conditions: SCC-9, 2 × IC50 (24.58 μM), up to 48 h
Procedure: Cells were maintained in a controlled chamber containing 5% CO2 and 37 °C. Images were captured every minute and integrated using Framelapse software (Neximo Laboratories, Uttar Pradesh, India).

Hep-G2 = test: MTT cell viability assay, Hep-G2

## O=C1C=C(OCc2cn(CCCOc3cc(=O)oc4ccccc34)nn2)C(=O)c2ccccc21 [Compound 7f, 2-((1-(3-((2-Oxo-2H-chromen-4-yl)oxy)propyl)-1H-1,2,3-triazol-4-yl)methoxy)naphthalene-1,4-dione]
SCC-9 cells [1]
  production of hydrogen peroxide (H2O2) / ROS: significant increase in ROS after 12 and 24 h
[2]
  caspases 3 and 7 activity, luminescent signal versus DMSO: approximately 2 fold
SCC-9 cells [3]
  proliferation and morphology by video microscopy: pronounced inhibition of proliferation
Hep-G2; HepG2, MTT, human hepatocellular carcinoma
  IC50: 16 µM
Hep-G2; versus human gingival fibroblast
  SI Hep-G2: 1.42
